From ChEMBL document CHEMBL5608235, “Tricyclic Benzo[1,3]oxazinyloxazolidinones as Potent Antibacterial Agents against Drug-Resistant Pathogens” (J Med Chem, 2024) come the findings set out here.

Values after ≈ are worked out from the molar mass of the structure shown.

Series [1] concerns Mycobacterium tuberculosis. Description: Antibacterial activity against Mycobacterium tuberculosis H37Rv assessed as inhibition of bacterial growth incubated for 7 days by alamar blue assay. It counts as functional. To be noted: 168 h, time 7 day.
For series [2], the system named is Staphylococcus aureus. Description: Antibacterial activity against Staphylococcus aureus ATCC25923 assessed as inhibition of bacterial growth incubated for 18 hrs by microdilution broth assay. The class given is functional.
Series [3] relates to Enterococcus faecalis. Description: Antibacterial activity against Enterococcus faecalis ATCC29212 assessed as inhibition of bacterial growth incubated for 18 hrs by microdilution broth assay. The class given is functional.
Series [4] relates to Bacillus subtilis. Description: Antibacterial activity against Bacillus subtilis ATCC6633 assessed as inhibition of bacterial growth incubated for 18 hrs by microdilution broth assay. The class given is functional.
In series [5] the test system is Staphylococcus epidermidis. Description: Antibacterial activity against Staphylococcus epidermidis ATCC12228 assessed as inhibition of bacterial growth incubated for 18 hrs by microdilution broth assay. It counts as functional.
A short description of series [6]: Cytotoxicity against African green monkey Vero cells incubated for 48 hrs by MTT assay. It counts as toxicity, cell-based, Chlorocebus sabaeus.
Series [7] is described as follows: Metabolic stability in ICR mouse liver microsomes assessed as substrate remaining at 10 uM incubated for 60 mins in presence of NADPH by LC-MS/MS analysis. The settings on record: read-out: Stability. The class given is ADME, Microsome.
Series [8] can be described thus: Metabolic stability in human liver microsomes assessed as substrate remaining at 10 uM incubated for 60 mins in presence of NADPH by LC-MS/MS analysis. The class given is ADME, Microsome. The settings on record: read-out: Stability.
For series [9], the system named is Staphylococcus aureus. The experiment in a line: Antibacterial activity against methicillin resistant Staphylococcus aureus clinical isolate 20-1 assessed as inhibition of bacterial growth incubated for 7 days by alamar blue assay. To be noted: clinical isolate 20-1, 168 h, time 7 day. The class given is functional.
The subject of series [10] is Staphylococcus aureus. Description: Antibacterial activity against methicillin resistant Staphylococcus aureus clinical isolate 20-2 assessed as inhibition of bacterial growth incubated for 7 days by alamar blue assay. To be noted: clinical isolate 20-2, 168 h, time 7 day. It counts as functional.
Series [11] deals with Staphylococcus epidermidis. The experiment in a line: Antibacterial activity against methicillin resistant Staphylococcus epidermidis clinical isolate 20-1 assessed as inhibition of bacterial growth incubated for 7 days by alamar blue assay. It counts as functional. To be noted: clinical isolate 20-1, 168 h, time 7 day.
In series [12] the test system is Staphylococcus epidermidis. The experiment in a line: Antibacterial activity against methicillin resistant Staphylococcus epidermidis clinical isolate 20-2 assessed as inhibition of bacterial growth incubated for 7 days by alamar blue assay. The settings on record: clinical isolate 20-2, 168 h, time 7 day. It counts as functional.
Series [13] relates to Staphylococcus aureus. Description: Antibacterial activity against vancomycin intermediate Staphylococcus aureus ATCC700699 assessed as inhibition of bacterial growth incubated for 7 days by alamar blue assay. The class given is functional. To be noted: ATCC700699, 168 h, time 7 day.
In series [14] the test system is Enterococcus. The experiment in a line: Antibacterial activity against vancomycin resistant Enterococcus clinical isolate 20-1 assessed as inhibition of bacterial growth incubated for 7 days by alamar blue assay. It counts as functional. The settings on record: clinical isolate 20-1, 168 h, time 7 day.
The test system of series [15] is Staphylococcus aureus. The experiment in a line: Antibacterial activity against Linezolid resistant Staphylococcus aureus clinical isolate 20-1 assessed as inhibition of bacterial growth incubated for 7 days by alamar blue assay. To be noted: clinical isolate 20-1, 168 h, time 7 day. It counts as functional.
The subject of series [16] is Staphylococcus aureus. The experiment in a line: Antibacterial activity against Linezolid resistant Staphylococcus aureus clinical isolate 20-2 assessed as inhibition of bacterial growth incubated for 7 days by alamar blue assay. It counts as functional. The settings on record: clinical isolate 20-2, 168 h, time 7 day.
The test system of series [17] is Enterococcus faecalis. The experiment in a line: Antibacterial activity against Linezolid resistant Enterococcus faecalis clinical isolate 20-1 assessed as inhibition of bacterial growth incubated for 7 days by alamar blue assay. The class given is functional. The settings on record: clinical isolate 20-1, 168 h, time 7 day.
Series [18] deals with Enterococcus faecalis. The experiment in a line: Antibacterial activity against Linezolid resistant Enterococcus faecalis clinical isolate 20-2 assessed as inhibition of bacterial growth incubated for 7 days by alamar blue assay. It counts as functional. To be noted: clinical isolate 20-2, 168 h, time 7 day.

On to `N#Cc1ccc(-c2c(F)cc3c(c2F)CN2C(=O)O[C@@H](CN)[C@@H]2O3)cc1`, for which the minimum inhibitory concentration (MIC) is 0.99 mg/L (≈ 2.77 µM) in series [1]; 64 mg/L (≈ 179 µM) in [2]; greater than 64 mg/L in series [3]; 32 mg/L (≈ 89.6 µM) in series [4]; 32 mg/L (≈ 89.6 µM) in [5]. The compound further had a concentration for half-maximal inhibition (IC50) at 48 h in series [6] of 8 mg/L (≈ 22.4 µM).

`COc1ccc(-c2c(F)cc3c(c2F)CN2C(=O)O[C@@H](CN)[C@@H]2O3)cn1`: the MIC is 1.82 mg/L (≈ 5.01 µM) in series [1]; 64 mg/L (≈ 176 µM) in series [2]; greater than 64 mg/L in series [3]; 64 mg/L (≈ 176 µM) in series [4]; 64 mg/L (≈ 176 µM) in series [5].

Take `CC(=O)NC[C@@H]1OC(=O)N2Cc3cc(-c4ccn5ncnc5c4)c(F)cc3O[C@@H]12`: the minimal inhibitory concentration (MIC) in [1] came to 1.43 mg/L (≈ 3.6 µM); in [2], 8 mg/L (≈ 20.1 µM); in series [3], 0.5 mg/L (≈ 1.26 µM); in series [4], 0.5 mg/L (≈ 1.26 µM); in series [5], 2 mg/L (≈ 5.03 µM). In series [6], the IC50 at 48 h is greater than 64 mg/L.

With `Cc1ncc2n1-c1ccc(Cl)cc1C(c1ccccc1F)=NC2` [MIDAZOLAM], the remaining at 1 h, 10 µM in [7] stood at 48.9%; in series [8] it was 62%.

On to `CC(=O)NC[C@@H]1OC(=O)N2Cc3c(cc(F)c(-c4ccc(-c5nnn(C)n5)nc4)c3F)O[C@@H]12`, for which the minimum inhibitory concentration (MIC) came out at 0.74 mg/L (≈ 1.62 µM) in series [1]; 1 mg/L (≈ 2.19 µM) in [2]; 2 mg/L (≈ 4.37 µM) in series [3]; 0.125 mg/L (≈ 0.273 µM) in series [4]; 2 mg/L (≈ 4.37 µM) in series [5]; 1 mg/L (≈ 2.19 µM) in series [9]. The MIC was found to be 1 mg/L (≈ 2.19 µM) in series [10]; 0.5 mg/L (≈ 1.09 µM) in [11]; 0.5 mg/L (≈ 1.09 µM) in series [12]; 1 mg/L (≈ 2.19 µM) in series [13]; 1 mg/L (≈ 2.19 µM) in series [14]; 8 mg/L (≈ 17.5 µM) in [15]. In addition, the MIC in series [16] was 8 mg/L (≈ 17.5 µM); in series [17] it was 2 mg/L (≈ 4.37 µM); in [18], 2 mg/L (≈ 4.37 µM). The compound also had an IC50 at 48 h in [6] greater than 64 mg/L.

As for `CC(=O)NC[C@@H]1OC(=O)N2Cc3c(cc(F)c(-c4ccc(C#N)cc4)c3F)O[C@@H]12`, the MIC in series [1] was 3.41 mg/L (≈ 8.54 µM); in series [2], 2 mg/L (≈ 5.01 µM); in [3], 0.25 mg/L (≈ 0.626 µM); in series [4], 0.032 mg/L (≈ 0.0801 µM); in [5], 1 mg/L (≈ 2.5 µM).

With `CC(=O)NC[C@H]1OC(=O)N2Cc3c(cc(F)c(-c4ccc(-c5nnn(C)n5)nc4)c3F)O[C@H]12`, the minimal inhibitory concentration (MIC) in [1] was greater than 32 mg/L; in [2] it was greater than 64 mg/L; in series [3], greater than 64 mg/L; in series [4], greater than 64 mg/L; in series [5] it was greater than 64 mg/L.

Regarding `N#Cc1ccc(-c2c(F)cc3c(c2F)CN2C(=O)O[C@@H](CN)[C@@H]2O3)cn1`, the minimum inhibitory concentration (MIC) is 0.5 mg/L (≈ 1.4 µM) in series [1]; greater than 64 mg/L in series [2]; greater than 64 mg/L in series [3]; greater than 64 mg/L in series [4]; 64 mg/L (≈ 179 µM) in series [5]. In addition, the midpoint of inhibition in [6], the IC50 at 48 h, lay at 59 mg/L (≈ 165 µM).

Take `CC(=O)NC[C@@H]1OC(=O)N2Cc3cc(-c4ccnc(C#N)c4)c(F)cc3O[C@@H]12`: the MIC in series [1] is 1.85 mg/L (≈ 4.84 µM); in series [2] it was 4 mg/L (≈ 10.5 µM); in [3], 1 mg/L (≈ 2.62 µM); in series [4] it was 0.25 mg/L (≈ 0.654 µM); in series [5], 1 mg/L (≈ 2.62 µM). For the same compound, the half-inhibitory concentration (IC50) at 48 h in [6] is greater than 64 mg/L.

Consider `CC(=O)NC[C@@H]1OC(=O)N2Cc3c(cc(F)c(-c4ccc(C(C)=O)cc4)c3F)O[C@@H]12`, for which the minimum inhibitory concentration (MIC) was determined as 0.93 mg/L (≈ 2.23 µM) in series [1]; 4 mg/L (≈ 9.61 µM) in series [2]; 0.25 mg/L (≈ 0.6 µM) in series [3]; 0.125 mg/L (≈ 0.3 µM) in [4]; 0.25 mg/L (≈ 0.6 µM) in series [5]. In addition, the IC50 at 48 h in [6] was greater than 64 mg/L.

`CC(=O)NC[C@H]1OC(=O)N2Cc3cc(-c4ccc(C#N)nc4)c(F)cc3O[C@@H]12`: the MIC is 0.48 mg/L (≈ 1.26 µM) in [1], 0.125 mg/L (≈ 0.327 µM) in series [2], 0.5 mg/L (≈ 1.31 µM) in series [3] and 0.125 mg/L (≈ 0.327 µM) in series [4]. Moreover, the IC50 at 48 h in series [6] is greater than 64 mg/L.

Regarding `CC(=O)NC[C@H]1OC(=O)N2Cc3cc(-c4ccc(-c5nnn(C)n5)nc4)c(F)cc3O[C@@H]12`, the MIC in series [1] is 0.54 mg/L (≈ 1.23 µM); in [2] it was 0.125 mg/L (≈ 0.284 µM); in series [3], 0.5 mg/L (≈ 1.14 µM); in series [4] it was 0.125 mg/L (≈ 0.284 µM).
